Where two headings read alike, the source gives them in different places.
How the values were obtained:
[1] = Plasma nicotinamide, NAL and NAL-X levels by HPLC after i.p. nicotinylalanine with or without ASA in uninfected mice; assay type: in vivo, C57BL/6 mice; conditions: for Plasma nicotinamide (NAm) level / concentration at 2 h: mean ± S.E., N=8; for concentration at 2 h: mouse, plasma, ip, 400 mg/kg, read-out: Plasma nicotinylalanine (NAL) level
Experimental: The concentration of nicotinamide and its major metabolites were determined by comparison of peak area ratios of the unknown versus internal standard (6-methylnicotinamide, Sigma Chemical Company) to the standard curves run in control mouse blood plasma.
Mice were treated with racemic nicotinylalanine alone (400 mg/kg) or in combination with acetyl salicylic acid (ASA) at a dose of either 20 mg/kg or 100 mg/kg body weight. […] Control mice received the vehicle for the drug compositions, being phosphate buffered saline (PBS), at the same volume on the same dose schedule as the drug-treated mice. Chronic dosing was performed daily for two weeks, Monday through Friday, and one group of mice received only a single (acute) dose of nicotinylalanine. All mice were killed two hours after their final dose and blood was collected by cardiac puncture and stored on ice, until centrifugation in a microfuge at 10,000 rpm to obtain plasma.
Concentrations of nicotinamide, nicotinamide-oxide, 1-methyl-nicotinamide, and nicotinylalanine extracted from 90% methanol, dried under N2, and reconstituted in water as above were determined by comparison of the peak area ratios of the unknown vs. the internal standard to the standard curve. Concentrations of the unidentified nicotinylalanine metabolite (NAL-X) were determined in the same way as above, except peaks were compared to the standard curve for known nicotinylalanine. The results are expressed as nanomoles of nicotinamide and nicotinylalanine per ml of plasma (nmol/ml).

[2] = Hematocrit of LP-BM5 infected mice (hematopoietic toxicity); assay type: in vivo, C57BL/6 mice; conditions: for Mean Hematocrit: virus-positive, NAL 400 mg/kg, ASA 20 mg/kg, AZT printed 1 mg/kg
Experimental: (§1) Disease progression was monitored by measuring serum IgM levels by ELISA on all animals at monthly intervals during the course of disease. Three mice per group were randomly selected and sacrificed at monthly intervals (end of month one through four) of the study. Disease scores for each animal were recorded weekly based upon palpation of lymph nodes and spleen. Complete gross necropsies were performed on these euthanized animals and the ratio of recorded spleen to body weights was an additional indicator of diseases progression. […] Infection was quantified by ecotropic virus XC plaque assays of spleens removed from the interim sacrificed animals. The study was to be terminated when mice were either dead or disease scores were +4 in more than 50% of the vehicle-treated MAIDS controls (Group 1), which occurred at 19 weeks post-inoculation of the virus pool. However, as the remaining mice in Group 1 were slow to progress towards more severe disease (FIG. 5) or death (FIG. 6), the study was extended until a termination date of 28 weeks post-inoculation.
Mice were maintained through the fifth month post virus inoculation until

[3] = Plasma pharmacokinetics of nicotinylalanine after i.v., i.p. and oral administration; assay type: in vivo, C57BL/6 mice; conditions: for bioavailability / half-life / Tmax: 400 mg/kg; for Tmax: read-out: Time of peak plasma level of NAL (converted); for k el: read-out: Ke (converted)
Experimental: The purpose of this study was to determine the plasma pharmacokinetics of nicotinylalanine in fasted, female C57BL/6 mice after intravenous (i.v.), intraperitoneal (i.p.), and oral (p.o.) administration of equivalent doses of nicotinylalanine at 400 mg/kg body weight. The analytic methods used in these studies were the same as described in Example 1 and Table 1 for Metabolic Studies.
Bioavailability of nicotinylalanine after p.o. and i.p. administration was determined by comparison of the areas under the plasma time curves with the area under the plasma time curve for the i.v. administration of an equivalent dose at 400 mg/kg into the tail vein. Time points were evaluated from five minutes to 1,440 minutes (24 hours) after dosing, although the rapid pharmacokinetics under each dosing regimen focused the time parameters to less than six hours.
Although there are several compartmental analyses which could be used to model the pharmacokinetic data, for derivation of pharmacokinetic parameters a simple non-compartmental analysis was selected. The computer program used to generate the parameters (Table 5) and for fitting the curves (FIGS. 7, 8) was the Lagran Program using the Lagrange Function. See, Rocci M. L. and Jusko W. J. 1983, "Lagran Program for Area and Moments in Pharmacokinetic Analysis", Comp. Prog. Biomed. 16, 203-212; and Yeh K. C. and Quan K. C. 1978, "A Comparison of Numerical Integrating Algorithms by Trapezoidal Lagrange and Spline Approximations", J. Pharmacokinet. Biopharmacol. 6, 79-93.

[4] = Behavioral toxicity, chronic i.p. dosing in mice; assay type: in vivo, C57BL/6 mice; conditions: chronic i.p. racemic NAL 400 mg/kg, more than four months
Experimental: Results from studies in a mouse model of AIDS (i.e., the LP-BM5 strain of murine leukemia virus-induced murine acquired immunodeficiency syndrome, MAIDS) are consistent with efficacy of a parenteral dose in humans of nicotinylalanine (isomer) between about 100 and 200 mg/kg body weight per day in combination with aspirin at about 20 mg/kg per day. […] Connick J. H., et al., Gen. Pharmac., 23:235-239, 1992. […] Vague P., et al., Lancet, I:619-620, 1987. This is consistent with the lack of toxicity reported for NAm in other human studies. (Hoffer A., Schizophrenia, 1:78-87, 1969).

[5] = rats treated with nicotinylalanine (Decker); cited from earlier work
[6] = acute 500 mg/kg racemic NAL (Connick 1992); cited from earlier work
[7] = Toxicity observations and necropsy in LP-BM5 infected mice; assay type: in vivo, C57BL/6 mice
Experimental: as §1

LP-BM5 MuLV Retrovirus = conditions: cited from earlier work
[8] = acute (single) NAL 400 mg/kg i.p., two hours after dose
[9] = chronic (2 Week) dosing of nicotinylalanine alone
[10] = chronic (2 weeks) NAL 400 mg/kg i.p. alone, two hours after last dose
[11] = two hours after acute i.p. 400 mg/kg NAL
[12] = within the first month of dosing

NC(CC(=O)c1cccnc1)C(=O)O (racemic) [NAL, γ-(3-pyridyl)-γ-oxo-α-aminobutyrate]
Plasma nicotinamide (NAm) level [1, 8]: 7.4 ± 2.3 nmol/mL | Change in plasma nicotinylalanine levels [1, 9]: nearly ten-fold decrease | Nicotinamide plasma level (in words) [1, 9]: return to nearly baseline levels of nicotinamide | Plasma nicotinamide (NAm) level [1, 10]: 4.7 ± 1.1 nmol/mL | concentration at 2 h [1, 8]: 115 ± 65.6 µM | concentration at 2 h [1, 10]: 11.2 ± 4.5 µM | Nicotinamide plasma level versus PBS-injected controls [1, 11]: about twice those found in PBS-injected controls | Plasma level of NAL versus NAL-X [1, 11]: about twice as high | Effect on decreased hematocrit (in words) ([2]; mouse, in vivo): protective effect | CL ([3]; NAL 400 mg/kg, i.p., fasted female mice): 31.6 | CL ([3]; NAL 400 mg/kg, p.o., fasted female mice): 50.2 | Volume of distribution (Vdss), in words ([3]; especially in the oral dosage form): consistent with a compound well-distributed in aqueous compartments | Bioavailability i.p. versus i.v. or oral, in words ([3]; i.p. compared to i.v. or oral): apparently greater however when the i.p. route is used | bioavailability ([3]; mouse, plasma, ip, NAL 400 mg/kg, i.p., fasted female mice, read-out: F (fraction bioavailable)): 183% | half-life ([3]; mouse, plasma, ip, NAL 400 mg/kg, i.p., fasted female mice, read-out: t1/2): 24.9 min | half-life ([3]; mouse, plasma, ip, i.p., read-out: t1/2 (half-life of plasma nicotinylalanine)): ~25 min | Tmax ([3]; mouse, plasma, ip): ~5 min | k el ([3]; mouse, plasma, ip, NAL 400 mg/kg, i.p., fasted female mice): 0.000463 s⁻¹ | Vd/F ([3]; mouse, plasma, ip, NAL 400 mg/kg, i.p., fasted female mice, read-out: Vdss): 0.821 L/kg | half-life ([3]; mouse, plasma, iv, NAL 400 mg/kg, i.v., fasted female mice, read-out: t1/2): 40.2 min | half-life ([3]; mouse, plasma, iv, i.v., read-out: t1/2 (half-life of plasma nicotinylalanine)): ~40 min | Tmax ([3]; mouse, plasma, iv): ~5 min | clearance ([3]; mouse, plasma, iv, NAL 400 mg/kg, fasted female mice): 3.44 L/h/kg | k el ([3]; mouse, plasma, iv, NAL 400 mg/kg, i.v., fasted female mice): 0.000287 s⁻¹ | Vd ([3]; mouse, plasma, iv, NAL 400 mg/kg, i.v., fasted female mice, read-out: Vdss): 1.33 L/kg | bioavailability ([3]; mouse, plasma, po, NAL 400 mg/kg, p.o., fasted female mice, read-out: F (fraction bioavailable)): 105% | half-life ([3]; mouse, plasma, po, NAL 400 mg/kg, p.o., fasted female mice, read-out: t1/2): 58.7 min | bioavailability ([3]; mouse, plasma, po, oral dose, read-out: fraction bioavailable (F)): ~100% | half-life ([3]; mouse, plasma, po, oral, read-out: t1/2 (half-life of plasma nicotinylalanine)): ~60 min | k el ([3]; mouse, plasma, po, NAL 400 mg/kg, p.o., fasted female mice): 0.000197 s⁻¹ | Vd/F ([3]; mouse, plasma, po, NAL 400 mg/kg, p.o., fasted female mice, read-out: Vdss): 3.35 L/kg | Tmax ([3]; mouse, plasma, oral gavage): ~10 min | Nicotinamide plasma level versus control ([3]; oral NAL 400 mg/kg, transient): about twice control | t1/2 oral versus i.p. ([3]; oral compared with i.p. dose): approximately twice as long | t1/2 oral versus i.v. ([3]; oral compared with i.v. dose): approximately one and a half (11/2) times as long | Behavioral toxicity [4]: not been associated with obvious behavioral toxicity | Increase in N-methylnicotinamide levels in urine [5]: 4-5 fold | Behavioral effects [6]: not to result in any behavioral effects

Cc1cn([C@H]2C[C@H](N=[N+]=[N-])[C@@H](CO)O2)c(=O)[nH]c1=O [AZT, 3'azido-3'deoxythymidine, reference compound]
Mean Hematocrit ([2]; Month 1 (10 bled)): 41.7 ± 4.0% | Mean Hematocrit ([2]; Month 2 (10 bled)): 42.7 ± 2.4% | Mean Hematocrit ([2]; Month 3 (7 bled)): 41.9 ± 1.7% | Mean Hematocrit ([2]; Month 4 (11 bled)): 42.6 ± 3.0% | Mean hematocrit over the four months sampled ([2]; NAL plus AZT (Group 5), AZT alone (Group 7)): ~42.6% | Hematopoietic toxicity ([2]; one-month interim assessment, AZT in drinking water): hematopoietic toxicity was already manifest | Deaths prior to termination of the study ([7]; 28-week study): one mouse | Necropsy finding in mice that died ([7]; Groups 4 and 7): distended food filled small and large intestines | Side-effect: melaninization [7, 12]: melaninization of extremities, tail, and ears | Side-effect: red-blood cell [7, 12]: red-blood cell toxicities | Disease progression (in words) (LP-BM5 MuLV Retrovirus; AZT 0.1 mg/kg (Eiseman 1991)): still delayed disease progression | Control of LP-BM5 disease (in words) (LP-BM5 MuLV Retrovirus; AZT 0.5 mg/kg in drinking water, chronic (Eiseman 1991)): effective in controlling LP-BM5 disease
